Source: patent publication US20200270225A1, “Chiral Diacylhydrazine Ligands for Modulating the Expression of Exogenous Genes via an Ecdysone Receptor Complex” (Intrexon Corporation, priority 2007, published 2020)
Where two headings read alike, the source gives them in different places.

Columns and labels:
[1] = target: T1, [V390I/Y410E/E274V]-CfEcR (Choristoneura fumiferana, UniProt O77240); type: cell-based; details: 3T3 Cells; for RMFI (relative maximum fold induction): relative to GS-E ligand
T1 construct: assay construct b835
In short: (§1)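 NIH3T3 cells were transiently co-transfected with GAL4-DBD fused to CfEcR DEF domains (wild-type or V390I/Y410E/E274V), VP16-AD fused to chimeric human/Locusta RXR, and a GAL4-response luciferase reporter. Ligand was given at 8 doses, 0.01–33 µM, 0.33% DMSO, luciferase read at 48 h. EC50 came from fold induction over DMSO via three-parameter logistic fit; Relative Max FI was taken versus GS™-E ligand.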

[2] = target: wild-type Choristoneura fumiferana EcR (D, E and F domains) (Choristoneura fumiferana, UniProt O77240); type: cell-based; details: WT-CtEcR, 3T3 Cells; for RMFI (relative maximum fold induction): relative to GS-E ligand
In short: as §1

[3] = Solubility in aqueous polysorbate 80, Assay 4; type: physicochemical
Source text: Equilibrium solubility in formulation excipients and biological fluids influences drug bioavailability, although kinetics of dissolution may also be a limiting factor in determining bioavailability. The solubilities of R enantiomer and racemate of 2-ethyl-3-methoxy-benzoic acid N′-(1-tert-butyl-butyl)-N′-(3,5-dimethyl-benzoyl)-hydrazide were established quantitatively in aqueous preparations of the pharmaceutical surfactant polysorbate 80 and then the intrinsic dissolution rate of compacted test substance was observed. Mixtures of racemate and R enantiomer in 0.5%, 1%, and 1.5% polysorbate 80 solutions were prepared by addition of 20+/−1 mg test substance in a 2 mL Eppendorf vial, followed by 500 mg polysorbate solution. The mixture was bead-beaten for 120 second, shaken at 25° C. for 16 to 24 hours, and filtered using a Spin-X (0.2 μM). The pH of the filtrate was recorded. The concentration of test substance in the filtrate was measured by quantitative HPLC analysis (FIG. 12). The R enantiomer is 2-3× more soluble in 1.0 and 1.5% polysorbate 80 solutions.

Caco-2 cell monolayers = assay: Bidirectional permeability through Caco-2 cell monolayers; type: in vitro ADME
Protocol: The test compounds were prepared as 5 μM in HBSSg with a maximum DMSO concentration <1%. Confluent monolayers of Caco-2 cells, 21 to 28 days old were prepared. The receiver well was prepared with 1% BSA in modified Hanks buffer HBSSg, and the apical and basolateral sides of Caco-2 cell were maintained at pH 7.4±0.2. Two monolayers were dosed in each direction (N=2): the apical side was dosed for (A→B) assessment and the basolateral side was dosed for (B→A) assessment. The test compound concentration was measured for both apical and basolateral sides at a time point of 120 minutes using a generic LC/MS/MS method with a minimum 4 point calibration curve. The values in FIG. 13 are: the percent recovery of the test compound from Transwell® wells containing Caco-2 cell monolayers; apparent permeability (Papp) in both directions; efflux ratio (Papp B→A)/(Papp A→B); absorption potential of a test compound classified as either Low or High; efflux classification is significant when efflux ≥3.0 and Papp (B→A)≥1.0×10-6 cm/s. […] Also, the efflux rate for the R enantiomer is lower.

B16 melanoma = assay: Anti-tumor efficacy with intratumoral transduced DCs in B16 melanoma mouse model; type: in vivo, C57/BL6 mice
Protocol: A comparative analysis of various administration routes and doses of (R)-2-ethyl-3-methoxy-benzoic acid N′-(1-tert-butyl-butyl)-N′-(3,5-dimethylbenzoyl)-hydrazide on the anti-tumor efficacy of intra-tumorally delivered DCs transduced with an adenoviral vector encoding murine interleukin-12p70 (DC-SP1(IL-12p70)) were carried out in a B16 melanoma mouse model. […] Optimal anti-tumor effects occurred at ≥30 mg/kg (R)-2-ethyl-3-methoxy-benzoic acid N′-(1-tert-butyl-butyl)-N′-(3,5-dimethyl-benzoyl)-hydrazide dose administered with (DC-SP1(IL-12p70)) therapy.
This drug dependent effect was associated with: transgene expression in the tumor and DLN; prolonged Ad-DCs survival in the tumor microenvironment; migration and persistence of AdDCs in the DLN; and induction of anti B16 CD8+ T cells.
When tumor-free animals were re-challenged, on day 50 (post-initial tumor inoculation), these animals were refractory to B16 melanoma, but not MC38 colon carcinoma, progression.

Row | SMILES | EC50 ([1]; rac) [nM] | RMFI (relative maximum fold induction) ([1]; rac) | EC50 ([2]; rac) [nM] | RMFI (relative maximum fold induction) ([2]; rac) | EC50 ([1]; R) [nM] | RMFI (relative maximum fold induction) ([1]; R) | EC50 ([2]; R) [nM] | RMFI (relative maximum fold induction) ([2]; R) | solubility relative to racemate ([3]; 1.0 and 1.5% polysorbate 80 solutions, 25° C.) | solubility of racemate and R enantiomer compared ([3]; deionized water and 0.5% polysorbate 80) | efflux rate, compared (Caco-2 cell monolayers; Caco-2) | apparent permeability (Papp), compared (Caco-2 cell monolayers; Caco-2, A→B and B→A, 5 μM, 120 minutes) | protective immunity on tumor re-challenge (B16 melanoma; 10^7 AdDCs plus 13 day ligand treatment, re-challenge day 50) | tumor regression and animal survival (B16 melanoma; intratumoral AdDCs carrying murine IL-12, systemic ligand within 48 hours following AdDCs injection) | dose for optimal anti-tumor effects (B16 melanoma; with DC-SP1(IL-12p70) therapy) [mg/kg] | anti-tumor efficacy (B16 melanoma; with DC-SP1(IL-12p70) therapy, i.p. injection, oral gavage or diet admix)
1 | CCCC(N(NC(=O)c1cccc(OC)c1CC)C(=O)c1cc(C)cc(C)c1)C(C)(C)C (racemic) [rac-1, rac-2-ethyl-3-methoxy-benzoic acid N′-(1-tert-butyl-butyl)-N′-(3,5-dimethyl-benzoyl)-hydrazide] | 0.14 | 1.05 | 1.63 | 1.05 |  |  |  |  |  |  |  |  |  |  |  | 
2 | CCC[C@@H](N(NC(=O)c1cccc(OC)c1CC)C(=O)c1cc(C)cc(C)c1)C(C)(C)C [Example 1, (R)-3,5-Dimethyl-benzoic Acid N-(1-tert-butyl-butyl)-N′-(2-ethyl-3-methoxy-benzoyl)-hydrazide] |  |  |  |  | 0.13 | 0.82 | 2.23 | 0.97 | 2-3 × | comparable | lower | more permeable than the racemate in both directions | protective immunity that was tumor-specific | complete regression of tumor and prolonged animal survival | ≥ 30 | anti-tumor efficacy was demonstrated
